Literature values, collected in patent US20220370561A1, “LITHIUM AS A MONOTHERAPY AND/OR STEM CELL ADJUVANT THERAPY FOR PULMONARY FIBROSIS” (Therapeutic Solutions International, Inc., priority 2021, published 2022).
Like-named read-outs stand apart in the source and are kept apart here.

What was measured:
[1] = danazol orally 800 mg per day
mesenchymal stem cells = details: culture of cells with valproic acid
p16/p21 pathway = details: in vitro pre-mature senescence model
[2] = 12 months, exploratory analysis

Compound | hematologic responses (3 months, 19 of 24 evaluable patients) | hematologic responses (24 months, 10 of 12 evaluable patients) | mean increase in telomere length (telomere length; 6 months, exploratory analysis) | patients with increase in telomere length (telomere length; 6 months, exploratory analysis) | mean increase in telomere length (telomere length; [2]) | patients with increase in telomere length (telomere length; [2]) | mean increase in telomere length (telomere length; 24 months compared with baseline) | patients with a gain in telomere length compared with baseline (telomere length; 24 months, 11 of 12) | telomere attrition in patients evaluable for the primary end point (telomere length; danazol orally 800 mg per day, 24 months) | patients meeting the primary efficacy end point (20% reduction in annual rate of telomere attrition), intention-to-treat (telomere length; danazol orally 800 mg per day, 24 months, 12 of 27 patients) | elevated liver-enzyme levels of grade 2 or less, patients [1] | muscle cramps of grade 2 or less, patients [1] | immune regulatory and metabolic properties of mesenchymal stem cells (mesenchymal stem cells) | G2/M phase blockage derived from the senescence stress (p16/p21 pathway) | cell proliferation (p16/p21 pathway) | apoptosis (p16/p21 pathway; through suppression of the p16/p21 pathway)
C#C[C@]1(O)CC[C@H]2[C@@H]3CCC4=Cc5oncc5C[C@]4(C)[C@H]3CC[C@@]21C [danazol] | 79% | 83% | 175 bp | 16 of 21 | 360 bp | 16 of 18 | 386 bp | 92% | reduced in all 12 patients | 44% | 41% | 33% |  |  |  | 
CCCC(CCC)C(=O)O [valproic acid] |  |  |  |  |  |  |  |  |  |  |  |  | enhanced | inhibited the G2/M phase blockage | increased cell proliferation | inhibited apoptosis
